Laboratory results from patent US4740233A, “Substituted 1,2,4-triazolo[1,5-a]-pyrimidine-2-sulfonamides and compositions and methods of controlling undesired vegetation and suppressing the nitrification of ammonium nitrogen in soil” (The Dow Chemical Company, priority 1986, dated 1988).

What was measured:
[1] = system: wheat; test: Postemergent control of plant species; assay type: in vivo, Triticum aestivum; conditions: Triticum aestivum, post-emergence, 336 h, read-out: percent postemergent control
Experimental: (§1) In representative operations, each compound to be utilized in a series of tests is dissolved in acetone to one-half of the final volume (twice the final concentration) to be used and the acetone solution in each case is admixed with an equal volume of water containing 0.1 percent by weight of surface active material. The compositions, generally in the nature of an emulsion, were employed to spray separate respective plant species which had been grown to a 2-4 leaf stage in soil of good nutrient content in a greenhouse. The various beds were positioned side by side and exposed to substantially identical conditions of temperature and light. Each bed was maintained so as to prevent any interaction with test compounds in different seed beds. Other plants were left untreated to serve as controls. After treatment, the plants were maintained for about two weeks under greenhouse conditions conducive for good plant growth and watered as necessary. Control refers to the reduction in growth compared to the observed results of the same untreated species.

[2] = system: wild oats; test: Postemergent control of plant species; assay type: in vivo, Avena fatua; conditions: Avena fatua, post-emergence, 336 h, read-out: percent postemergent control
Experimental: as §1

[3] = system: johnson grass; test: Postemergent control of plant species; assay type: in vivo, Sorghum halepense; conditions: Sorghum halepense, post-emergence, 336 h, read-out: percent postemergent control
Experimental: as §1

[4] = system: cotton; test: Postemergent control of plant species; assay type: in vivo, Gossypium spp.; conditions: Gossypium hirsutum, post-emergence, 336 h, read-out: percent postemergent control
Experimental: as §1

[5] = system: yellow nutsedge; test: Postemergent control of plant species; assay type: in vivo, Cyperus esculentus; conditions: Cyperus, post-emergence, 336 h, read-out: percent postemergent control
Experimental: as §1

[6] = system: velvetleaf; test: Postemergent control of plant species; assay type: in vivo, Abutilon theophrasti; conditions: Abutilon theophrasti, post-emergence, 336 h, read-out: percent postemergent control
Experimental: as §1

[7] = system: rice; test: Postemergent control of plant species; assay type: in vivo, Oryza sativa; conditions: Oryza sativa, post-emergence, 336 h, read-out: percent postemergent control
Experimental: as §1

[8] = system: barnyardgrass; test: Postemergent control of plant species; assay type: in vivo, Echinochloa crusgalli; conditions: Echinochloa crus-galli, post-emergence, 336 h, read-out: percent postemergent control
Experimental: as §1

[9] = system: rape; test: Postemergent control of plant species; assay type: in vivo, Brassica napus; conditions: Brassica napus, post-emergence, 336 h, read-out: percent postemergent control
Experimental: as §1

[10] = system: yellow foxtail; test: Postemergent control of plant species; assay type: in vivo, Setaria lutescens; conditions: Setaria, post-emergence, 336 h, read-out: percent postemergent control
Experimental: as §1

[11] = system: annual morning glory; test: Postemergent control of plant species; assay type: in vivo, Ipomoea spp.; conditions: Ipomoea, post-emergence, 336 h, read-out: percent postemergent control
Experimental: as §1

[12] = system: sorghum; test: Postemergent control of plant species; assay type: in vivo, Sorghum vulgare; conditions: Sorghum, post-emergence, 336 h, read-out: percent postemergent control
Experimental: as §1

[13] = system: soybean; test: Postemergent control of plant species; assay type: in vivo, Glycine max.; conditions: Glycine max, post-emergence, 336 h, read-out: percent postemergent control
Experimental: as §1

[14] = system: jimsonweed; test: Postemergent control of plant species; assay type: in vivo, Datura stramonium; conditions: Datura stramonium, post-emergence, 336 h, read-out: percent postemergent control
Experimental: as §1

[15] = system: corn; test: Postemergent control of plant species; assay type: in vivo, Zea mays; conditions: Zea mays, post-emergence, 336 h, read-out: percent postemergent control
Experimental: as §1

[16] = system: cocklebur; test: Postemergent control of plant species; assay type: in vivo, Xanthium spp.; conditions: Xanthium strumarium, post-emergence, 336 h, read-out: percent postemergent control
Experimental: as §1

[17] = system: pigweed; test: Postemergent control of plant species; assay type: in vivo, Amaranthus spp.; conditions: Amaranthus retroflexus, post-emergence, 336 h, read-out: percent postemergent control
Experimental: as §1

[18] = system: crabgrass; test: Postemergent control of plant species; assay type: in vivo, Digitaria spp.; conditions: Digitaria sanguinalis, post-emergence, 336 h, read-out: percent postemergent control
Experimental: as §1

[19] = system: sugar beet; test: Postemergent control of plant species; assay type: in vivo, Beta saccharifera; conditions: Beta vulgaris, post-emergence, 336 h, read-out: percent postemergent control
Experimental: as §1

[20] = system: nitrification of ammonium nitrogen; test: Suppression of nitrification of ammonium nitrogen in soil; conditions: 27° C.
Procedure, shortened: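 Soil (20 g) moistened to its 1/3 bar tension value, mixed with test chemical and incubated sealed for two weeks at 27° C. Nitrate extracted with ammonium sulfate solution and measured by nitrate-specific ion electrode; value given as % NH4-N remaining.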

SMILES | pest or weed control at 500 ppm [2] [%] | pest or weed control at 500 ppm [3] [%] | plant injury at 500 ppm [4] [%] | pest or weed control at 500 ppm [5] [%] | pest or weed control at 500 ppm [6] [%] | plant injury at 500 ppm [7] [%] | pest or weed control at 500 ppm [8] [%] | plant injury at 500 ppm [9] [%] | pest or weed control at 500 ppm [10] [%] | pest or weed control at 500 ppm [11] [%] | plant injury at 500 ppm [12] [%] | plant injury at 500 ppm [13] [%] | pest or weed control at 500 ppm [14] [%] | plant injury at 500 ppm [15] [%] | pest or weed control at 500 ppm [16] [%] | pest or weed control at 500 ppm [17] [%] | other results
Cc1cc(C)n2nc(S(=O)(=O)Nc3c(F)c(F)cc(F)c3F)nc2n1 [Compound 90] | 0 | 20 | 0 | 0 | 50 | 0 | 0 | 70 | 70 | 30 | 0 | 50 | 70 | 0 | 75 | 100 | plant injury at 500 ppm [1]: 0%
O=S(=O)(Nc1ccccc1C(F)(F)F)c1nc2ncc(Cl)cn2n1 [Compound 118] | 0 | 0 | 0 | 70 | 80 | 0 | 0 | 80 | 20 | 70 | 0 | 0 | 100 | 0 | 100 | 70 | pest or weed control at 500 ppm [18]: 60%; plant injury at 500 ppm [19]: 100%; % NH4-N Remaining After 2 Weeks Incubation ([20]; 0.06 ppm): 30%; % NH4-N Remaining After 2 Weeks Incubation ([20]; 0.25 ppm): 37%; % NH4-N Remaining After 2 Weeks Incubation ([20]; 1 ppm): 61%; % NH4-N Remaining After 2 Weeks Incubation ([20]; 4 ppm): 85%
